{
  "source": "patent US20230112641A1",
  "about": "“METHODS OF TREATING DIARRHEA OR INFLAMMATORY CONDITIONS OF THE GUT” (ABBOTT LABORATORIES, priority 2020, published 2023)",
  "target": "T1, human GPR109A (Homo sapiens, UniProt Q8TDS4)",
  "T1 construct": "expressed in transfected cells",
  "T1 sequence (Q8TDS4 whole entry)": "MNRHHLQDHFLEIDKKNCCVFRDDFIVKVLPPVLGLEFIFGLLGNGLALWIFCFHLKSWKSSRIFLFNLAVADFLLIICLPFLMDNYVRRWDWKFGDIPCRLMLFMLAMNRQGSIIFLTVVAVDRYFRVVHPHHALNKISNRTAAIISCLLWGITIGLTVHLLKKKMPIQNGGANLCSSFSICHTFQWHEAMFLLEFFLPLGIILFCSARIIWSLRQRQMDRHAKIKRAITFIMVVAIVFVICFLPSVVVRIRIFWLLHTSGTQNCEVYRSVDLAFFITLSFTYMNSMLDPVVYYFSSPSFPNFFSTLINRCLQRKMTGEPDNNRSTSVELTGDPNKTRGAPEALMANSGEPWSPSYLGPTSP",
  "assay": "Intracellular cAMP levels in forskolin-treated GPR109A-expressing colonic cells, measured by fluorescence (cAMP-Glo Assay)",
  "type": "cell-based",
  "settings": "cAMP reduction in forskolin-treated cells; read-out: EC50 to activate the GPR109A receptors",
  "from_the_text": "The activity of GI-coupled receptors like GPR109A is normally assessed by showing a reduction in cellular levels of cAMP in forskolin-treated cells. This is normally done using the commercially available kit, cAMP-Glo™ Assay. […] When a GI-coupled receptor is activated in forskolin-treated cells, cAMP levels will go up.",
  "data": [
    {"smiles": "CC(C)(O)CC(=O)O", "note": "[HMB, beta-hydroxy-beta-methylbutyrate]", "values": [
      {"measurement": "EC50", "result": "250 to 2500", "unit": "µM"}
    ]}
  ]
}
